Results: article PMC5594551, “Heterogeneous drug penetrance of veliparib and carboplatin measured in triple negative breast tumors” (Breast Cancer Research : BCR, 2017)
Values joined by “and” are separate entries in the source; they are usually repeats but may differ in a detail not shown here. Equal values may be shown once.

What was measured:
[1] = Carboplatin quantified by LC-MS in mouse plasma and TNBC xenograft tissue; type: in vivo, beige SCID mice
Protocol: Forty-one beige DF mice with severe combined immunodeficiency (SCID) (Fox Chase, strain R035948:1) were implanted with 10^6 MDA-MB-231 (N = 10), HCC70 N = 21) or MDA-MB-436 (N = 10) TNBC cells obtained from the ATCC bilaterally in the mammary fat pads (Fig. 1). When the TNBC xenograft tissue size exceeded 200 mm^3, the mice were randomized across the treatment cohorts. Animals were randomized into veliparib low dose (20 mg/kg), veliparib high dose (60 mg/kg) or placebo + C, introduced via oral gavage three times daily for 3 days (all but the two DCE-MRI study mice). Carboplatin at 60 mg/kg was administered intravenously on day 1 and day 2. […]
Thirty-nine mice were euthanized approximately 3 h after the last dose of veliparib and 24 h after the last dose of carboplatin; two mice used in the DCE-MRI pilot were euthanized 1.5 h after single-dose administration of veliparib and carboplatin (Fig. 1). […] A separate fresh-frozen portion of each tissue per animal was ground for quantification of veliparib and carboplatin by LC-MS. […]
Plasma samples (50 μl ) were prepared using protein precipitation with acetonitrile. […] Volume and weight of the pulverized tumor was determined. […]
Veliparib/carboplatin quantification: […]
Concentration of veliparib in tissues were calculated in mg/g and transferred to mg/L by estimating the average density of the livers, muscles and tumors. […]

[2] = test system: nuclear DNA; assay: Platinum adducts (covalent nuclear DNA-binding) by ICP-MS in TNBC xenograft tumor sections; type: in vivo, beige SCID mice
Protocol: Thirty-nine mice were euthanized approximately 3 h after the last dose of veliparib and 24 h after the last dose of carboplatin; two mice used in the DCE-MRI pilot were euthanized 1.5 h after single-dose administration of veliparib and carboplatin (Fig. 1). Bilateral xenograft tumors and liver and muscle (quadriceps) tissues were harvested. Tissues were cut into three pieces and either embedded in optimum cutting temperature (OCT) formulation or were directly snap frozen in liquid-nitrogen-cooled isopentane and stored at − 80 °C until analysis. […] A separate fresh-frozen portion of each tissue per animal was ground for quantification of veliparib and carboplatin by LC-MS. Method development and details of the techniques are described in Additional file 1a-c. […]
b). Technical aspects of the ICP-MS method development. […]
DNA extraction procedure:
The DNA extraction was based on previous publications. 4 In short, 44 μL 1 mol L −1 NH4HCO3, 20 μL 20% (w/v) SDS, and 6 μL 1% (w/v) proteinase K solution were added successively, and incubated for 24hours using a thermomixer. After the digestion was complete, 146 μL saturated 6 mol L−1 NaCl was added to each tube and the tubes were shaken vigorously to precipitate proteins. The tubes were centrifuged for 10min at 2000 g and the supernatant containing the DNA was transferred to another tube. Subsequently, the supernatant was shaken, centrifuged, and transferred to another tube. Following this, 1.5ml absolute ethanol was added to precipitate the DNA and centrifuged from 30 minutes at 21 Kg at 4°C. The DNA was washed twice with 75% ethanol and was subsequently dissolved in 30 μL water. DNA concentrations were analyzed by measuring the absorbance at 260 nm using Nanodrop 1000 spectophotometer (NanoDrop).
Carboplatin adduct quantification:
The quantity of the carboplatin-adducts per mg DNA was quantified (Figure S8) using a previously validated […]
Figure S8: Example graph of mass spectrum of platinum in DNA extraction by ICP-MS.

[3] = Carboplatin plasma PK in patients of phase 1 trial (three-compartment model); type: in vivo
Protocol: Carboplatin and platinum adducts were determined in a limited number of blood samples from a previously presented phase 1 clinical trial (NCT02358200). […] In the case of grade 3 or grade 4 toxicity, carboplatin and/or talazoparib doses were held until below grade 1 and resumed at a lower dose level. Blood samples were obtained from a limited number of patients during cycle 1 day 1 (prior to talazoparib dosing) and cycle 2 day 1 pre-dose and up to 24 h post dose, and PBMCs were derived at day 15 post dose, DNA was extracted as described in Additional file 1d and platinum adducts were quantified by ICP-MS (Additional file 1b).
A three-compartment model best described carboplatin in plasma and no variability between patients was observed (Additional file 1: Figure S12 and Table S2). In further analyses, we assumed that the carboplatin plasma PK profile in the other 16 patients was similar to that the first 3 patients: in these patients glomerular filtration rate (GFR) ranged from 60 to 151 mL/min and BSA values ranged from 1.58 to 2.0 m^2. […] [34].
Supplementary Table 2: PK patients estimates carboplatin and platinum adducts Structural model PK Estimat RS
Inter-individual variability on Platinum adduct formation (RPT) 317% proportional residual error plasma carboplatin 28% 26 […]
proportional residual error adduct formation 110% 6%
Platinum adduct formation:
CL=clearance, V=volume of distribution, KA= rate of absorption, RPT= ratio of carboplatin adduct formation, KPT= rate of carboplatin adduct formation, gBRCA = germline BRCA carrier […]
(also on this page, place not known: ( )adductsC−×× plasmaCRPT KPT=dt dCadducts)
(1 picture or pasted object on this page, not shown here)

[4] = test system: metastatic BRCA-mutated breast cancer; design: method as in ref [52] = [52]; 52. Somlo G Phase II trial of single agent PARP inhibitor ABT-888 (veliparib [vel]) followed by postprogression therapy of vel with carboplatin (carb) in patients (pts) with stage BRCA-associated meta; conditions: veliparib 400 mg BID until disease progression; ref [52]; cited from earlier work

Compound | Carboplatin in TNBC xenograft tissues ([1]; 24 h after administration, MALDI-MSI and LC-MS) | Median conc. (RSE %) ([1]; plasma, 0.6 h after carboplatin 60 mg/kg intravenously, LC-MS) | Median conc. (RSE %), carboplatin adducts ([2]; HCC70 xenografts) [μmol/g DNA] | Median conc. (RSE %), carboplatin adducts ([2]; HCC70 xenografts, listed as Carboplatin) | Median conc. (RSE %), carboplatin adducts ([2]; MDA-MB-231 xenografts) [μmol/g DNA] | Median conc. (RSE %), carboplatin adducts ([2]; MDA-MB-231 xenografts, listed as Carboplatin) | Median conc. (RSE %), carboplatin adducts ([2]; MDA-MB-436 xenografts) [μmol/g DNA] | Median conc. (RSE %), carboplatin adducts ([2]; MDA-MB-436 xenografts, listed as Carboplatin) | Median conc. (RSE %), carboplatin adducts ([2]; all TNBC xenograft tissue, 24 h after two carboplatin administrations, ICP-MS) | Median conc. (RSE %), carboplatin adducts ([2]; carboplatin combined with placebo) | Median conc. (RSE %), carboplatin adducts ([2]; carboplatin combined with veliparib 60mg/kg for 3 days) | Median platinum adducts ([2]; xenograft tumor sections) [nmol/g DNA] | Half-life carboplatin in plasma [3] [h] | Q [3] [L/h] | Q2 [3] [L/h] | V1 [3] [L] | V2 [3] [L] | CLday15 ([3]; day 15) [L/h] | CLday1 ([3]; single agent day 1) [L/h] | Patients with partial response [4] [%]
N.N.O=C([O-])C1(C(=O)[O-])CCC1.[Pt+2] [carboplatin] | undetectable | 24 mg/L and 24 (20) mg/L | 1.85 | 1.85 (42%) μmol/g DNA | 0.55 | 0.55 (23%) μmol/g DNA | 0.54 | 0.54 (27%) μmol/g DNA | 0.55 (30%) μmol/g DNA | 0.476 (57) μmol/g DNA | 0.977 (33) μmol/g DNA | 546.3 | 2.1 | 0.324 | 16.7 | 0.935 | 52.8 | 5.33 | 5.2 | –
C[C@]1(c2nc3c(C(N)=O)cccc3[nH]2)CCCN1 [veliparib] | – | – | – | – | – | – | – | – | – | – | – | – | – | – | – | – | – | – | – | 20
